# ChEMBL document CHEMBL1143951, “Synthesis and cytotoxicity evaluation of 22,23-oxygenated stigmastane derivatives” (Bioorg Med Chem, 2008)
# Experiments:
# HepG2 = test: Cytotoxicity against human HepG2 cells after 48 hrs by MTT assay; assay type: functional, cell-based
# MCF7 = test: Cytotoxicity against human MCF7 cells after 48 hrs by MTT assay; assay type: functional, cell-based
Structure (SMILES),Activity (HepG2),Activity (MCF7)
CCC(C(C)C)[C@H]1O[C@@H]1[C@@H](C)[C@H]1CC[C@H]2[C@@H]3[C@H](O)C=C4C[C@@H](O)CC[C@]4(C)[C@H]3CC[C@]12C (stereo partly specified),Toxic,Toxic
CCC(C(C)C)[C@@H](O)[C@H](O)[C@@H](C)[C@H]1CC[C@H]2[C@@H]3C(=O)C=C4C[C@@H](O)CC[C@]4(C)[C@H]3CC[C@]12C (stereo partly specified),Toxic,Toxic
CCC(C(C)C)[C@@H](O)[C@H](O)[C@@H](C)[C@H]1CC[C@H]2[C@@H]3CC=C4C[C@@H](O)CC[C@]4(C)[C@H]3CC[C@]12C (stereo partly specified),Toxic,Toxic
CCC(C(C)C)[C@@H](O)[C@H](O)[C@@H](C)[C@H]1CC[C@H]2[C@@H]3C[C@@H](O)[C@@]4(O)C[C@@H](O)CC[C@]4(C)[C@H]3CC[C@]12C (stereo partly specified),Toxic,Toxic
CC[C@@H](C(C)C)[C@@H](O)[C@H](O)[C@@H](C)[C@H]1CC[C@H]2[C@@H]3CC(=O)C4=CC(=O)CC[C@]4(C)[C@H]3CC[C@]12C,,Toxic
CC[C@@H](C(C)C)[C@@H](O)[C@H](O)[C@@H](C)[C@H]1CC[C@H]2[C@@H]3CCC4=CC(=O)CC[C@]4(C)[C@H]3CC[C@]12C,,Toxic
CCC(C(C)C)[C@@H](O)[C@H](O)[C@@H](C)[C@H]1CC[C@H]2[C@@H]3C[C@@H]4O[C@@]45C[C@@H](O)CC[C@]5(C)[C@H]3CC[C@]12C (stereo partly specified),,Toxic
